According to patent US20250235429A1, “TREATMENT OF DISEASES VIA ADMINISTRATION OF BUNTANETAP AND AN ANTIDIABETIC AGENT” (ANNOVIS BIO, INC., priority 2024, published 2025):
Entries after “also recorded” stand apart in the source; their conditions may differ.

Key:
[1] = tested on: APP in SH-SY-5Y human neuroblastoma cells; assay: APP in vitro (Western blot) in neuroblastoma cells; format: cell-based; conditions: SH-SY-5Y cells; 0, 0.1, 1, 5 and 10 μM
aSYN = conditions: transgenic Parkinson's animals, in the brain and in the gut; cited from earlier work
[2] = tested on: early AD patients and early PD patients; conditions: cited from earlier work
APP and its fragments [3] = conditions: APP/PS1 transgenic mice; cited from earlier work
Huntingtin Protein = conditions: through Translational Suppression; cited from earlier work
[4] = tested on: traumatic brain injury rats; conditions: cited from earlier work
tau [5] = conditions: unpublished observation, Peter Davies Laboratory; cited from earlier work
[6] = tested on: APP, Tau, and aSYN in the cerebrospinal fluid (CSF) of MCI subjects; conditions: cited from earlier work
[7] = tested on: APP in SH-SY-5Y human neuroblastoma cells; conditions: cited from earlier work
rat acute glaucoma model = conditions: cited from earlier work
APP/PS1 transgenic mice = assay: Contextual fear conditioning (FC), associative memory; format: in vivo; conditions: Buntanetap 1 mg/Kg and/or dulaglutide 0.1 mg/Kg
Experimental: Animals: Heterozygous double transgenic mice expressing both human APP (K670N:M671L) and human PS1 (M146L) (line 6.2) and their wild-type non-transgenic littermates, both males and females, were used for these experiments. They were obtained by a breeding colony maintained at the animal facility of Columbia University. They were genotyped through PCR on tail samples. Animals were injected i.p. from the age of […] for 1 month prior to starting behavioral assessment which lasted for 2 weeks during which treatment continued. Behavioral assessment examined spatial and associative memory. Finally, mice were sacrificed for electrophysiological assessment of synaptic function.
Mice were coded to blind investigators with respect to genotype and treatment. Results were expressed with Standard Error of the Mean (SEM). […] Results were analyzed by ANOVA analysis with post-hoc correction with the combination or genotype as main effect. […]
The combination effect on associative memory was assessed through fear conditioning (FC). […] Freezing behavior, defined as the absence of movements except for that needed for breathing, was scored using Noldus software. Contextual fear learning, a type of memory for which hippocampal function is indispensable, was evaluated 24 hrs after training by measuring freezing responses for 5 min in the same chamber where the mice have been trained. […]

[8] = cited from earlier work
APP and its fragments [9] = assay: APP in vivo in APP/PS1 transgenic AD mice (hippocampus)
Source text: FIG. 2, APP in vivo. […] GAPDH and Synaptophysin were loading controls. FIG. 2 also includes a collection of graphs showing relative density of APP plotted against control and time after buntanetap treatment; relative density of CTFβ plotted against control and time after buntanetap treatment; relative density of CTFα plotted against control and time after buntanetap treatment; A042 levels in brain tissue plotted against control and time after buntanetap treatment; and A040 levels in brain tissue plotted against control and time after buntanetap treatment. Finally, FIG. 2 also includes a Western blot showing levels of APP, NSB, CTFβ, and CTFα after buntanetap treatment over time (minutes).

tau [10] = conditions: Human tau mice; unpublished observation; cited from earlier work
[11] = tested on: Ts65dn mouse model of Down syndrome (DS); conditions: cited from earlier work
[12] = tested on: APP, Tau, and aSYN in the cerebrospinal fluid (CSF) of MCI subjects; assay: CSF biomarkers in MCI subjects before and after 10 days of buntanetap (proof of mechanism); conditions: mildly cognitive impaired patients, 10 days of administration (FIG. 3)

CN1CC[C@]2(C)c3cc(OC(=O)Nc4ccccc4)ccc3N(C)C12 (stereo partly drawn) [Buntanetap, (3aR)-1,3a,8-trimethyl-1,2,3,3a,8,8a-hexahydropyrrolo[2,3-b]indol-5-yl phenylcarbamate]
APP in relation to Actin standard (Western blot) [1]: lowers APP in vitro in a dose-dependent manner
aSYN in vivo (aSYN): lowers
levels of neurotoxic proteins and inflammatory factors (biomarker data) ([2]; AD and PD cohorts): trend in lowering
axonal and synaptic function ([2]; AD and PD patients): improved
blood brain barrier crossing ([2]; AD and PD patients): crossed the blood brain barrier
inflammatory markers ([2]; AD and PD patients): reduced
neurotoxic protein biomarkers ([2]; AD and PD patients): reduced
ADAS-Cog11 and WAIS coding (psychometric tests) ([2]; AD patients, 80 mg QD): statistically significant improvements
cognition as measured by ADAS-Cog11 and WAIS coding speed ([2]; AD patients, statistical significance versus baseline at 80 mg dose but not placebo): improved
MDS-UPDRS and WAIS coding (psychometric tests) ([2]; PD patients, 5-80 mg QD): statistically significant improvements
motor function as measured by MDS-UPDRS (Part II, III, IV and total) ([2]; PD patients, all doses, maximum improvement for 10 & 20 mg): improved
WAIS speed and accuracy ([2]; PD patients, significant versus placebo in 5 mg, 20 mg and 80 mg arms): improved
safety and tolerability ([2]; doses up to 80 mg in both AD and PD patients): well tolerated
Cmax and AUC ([2]; plasma, without evidence for a plateau up to 80 mg QD): increased with dose
levels of APP and all its fragments (APP and its fragments [3]): lowers
levels of Huntingtin Protein (Huntingtin Protein): reduced
inflammation ([4]; rat brain after TBI): lowered
impaired synaptic transmission ([4]; rat striatum after traumatic brain injury (TBI)): Normalized
nerve cells ([4]; rat substantia Ingra after TBI): protected
memory and learning ([4]; traumatic brain injury rats): Preserved
tau in vitro (tau [5]): lowers
levels of APP, Tau, and aSYN in the cerebrospinal fluid (CSF) ([6]; MCI subjects, 4×60 mg/day): normalized
CSF A342 ([6]; MCI subjects): trend to lower
CSF levels of sAPPa, sAPPP, t-tau, p-tau, and specific inflammatory markers ([6]; MCI subjects): significantly lowered
inflammation ([6]; human CSF of MCI subjects): lowered
levels of APP in vitro [7]: lowers
retina (rat acute glaucoma model; acute glaucoma): Preserved
nerve cells (rat acute glaucoma model; rat acute glaucoma model): protected
impairment of associative memory measured through contextual fear conditioning (FC) (APP/PS1 transgenic mice): did not ameliorate
half-life in CSF ([8]; MCI subjects): > 12 h
tolerability ([8]; doses up to 4×60 mg daily X 10 days): well tolerated
concentration in brain relative to plasma ([8]; in vivo): about 8 times
terminal half-life ([8]; plasma, all doses, biphasic clearance): 4.3 to 4.7 h
time after the last dose for which APP and all related peptides in hippocampus were reduced (APP and its fragments [9]; APP/PS1 mice): at least 9 hours
APP and its fragments in hippocampus (APP and its fragments [9]; APP/PS1 transgenic AD mice): reduced
tau in vivo (tau [10]): lowers
memory and learning [11]: Restored
APP/Abeta, tau/phospho-tau and alpha-synuclein in the spinal fluid [12]: reduction; also recorded: normalized
